What was measured:
[1] = target: T1, Lipex 100 L lipase (Thermomyces lanuginosus, UniProt O59952, N255R/T253R); assay: Inhibition of Lipex 100 L at fixed dose of 500 μM (Example 7, C12 pNP ester); format: biochemical; conditions: fixed dose of 500 μM; for Lipex 100L lipase activity (inhibitory effect of various saponin derivatives): lipase 10 ng/mL final, 50 mM Tris pH 8.5, 25° C., C12 pNP ester 0.1 mM final, lipase-only control 0.0545; for lipase inhibition: Lipex 100 L 10 ng/mL, C12 pNP ester
T1 construct: purchased Novozymes
T1 sequence (O59952 23-291 T253R/N255R): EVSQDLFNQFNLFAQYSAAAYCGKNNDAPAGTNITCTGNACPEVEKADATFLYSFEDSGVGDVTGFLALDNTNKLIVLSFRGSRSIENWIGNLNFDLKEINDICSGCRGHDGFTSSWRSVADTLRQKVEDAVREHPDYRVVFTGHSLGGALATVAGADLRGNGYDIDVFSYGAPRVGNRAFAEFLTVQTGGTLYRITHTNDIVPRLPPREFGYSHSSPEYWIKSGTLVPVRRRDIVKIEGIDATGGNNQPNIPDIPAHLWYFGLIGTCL
Description: (§1) Lipase activity was determined by a colorimetric method using 4-nitrophenyl-valerate (C5) and 4-nitrophenyl-dodecanoate (C12) as substrates. 4-nitrophenyl-dodecanoate (25 mg) or 4-nitrophenyl-valerate (18 mg) were dissolved in 10 mL solvent (methanol) to prepare 8 mM stock solutions. 1 mL of stock solution was added in 7 mL of acidified water (pH 4.5), to give a final concentration of 1 mM (the substrate). In 96-well microtitre plates the following reagents were added: 60 μL dH2O, 80 μL Tris-HCl buffer (pH 8.5, 50 mM), 20 μL of diluted enzyme solution, 20 μL of saponin 10× concentrated stock solution. 20 μL substrate was then added to start the reaction. For zero enzyme controls, enzyme solution was replaced with H2O. Following the addition of substrate, the release of product (4-nitrophenol) was monitored at 405 nm for 15 min at ambient temperature in a Varioskan plate reader.
Various saponins were tested for their ability to inhibit Lipex 100 L lipase (10 ng/mL final). A buffer was used (50 mM Tris pH 8.5) and the experiments were carried out at 25° C. At a fixed dose of 500 μM a number of those tested were effective in lowering the lipase activity. The substrate used for testing as C12 pNP ester (0.1 mM final). These included glycosylated derivatives of oleanolic acid, avenacin, tea tree saponin as well as escin (table 4). Orlistat as a known inhibitor of lipase was also included for comparison (table 4).

[2] = target: T1, Lipex 100 L lipase; assay: Biochemical determination of lipase activity (4-nitrophenyl ester hydrolysis, 405 nm) with Lipex 100 L; conditions: for Lipex 100L activity in the presence of saponins: 10 ng/mL lipase; for activation of Lipex 100 L: saponin at fixed concentration of 10 μM, FIG. 3; for % increase in Lipase activity in the presence of escin saponin compared to absence of saponin: Lipex 100L
Description: as §1
(§2) The dose response of various lipases to saponins were tested in a biochemical assay. The concentration of lipase in these experiments was 10 μg/L. This level was chosen to ensure that substrate hydrolysis and resultant increase in absorbance measurements falls within the sensitivity of the spectrophotometer. […] In all cases, the lipase activity increased as the escin concentration reached above a threshold value, which varied according to the enzyme in question, but was in the region 0.01 (Resinase HT) to 0.10 μM (Lipex, 100 L, Lipex Evity and Novozyme 51032).
Activation of a single lipase (Lipex 100 L) by a variety of natural saponins and saponins derived through metabolic engineering were tested using the biochemical assay. The unglycosylated terpenoid, oleanolic acid (OA), was also tested to determine whether lipase activation was a result of the terpenoid moiety or required the terpenoid scaffold to be glycosylated. To compare this directly, the enzymes activation by saponins comprising oleanolic acid glycosylated with 3 or 4 glycoside residues at the C28 position of the triterpenoid (oleanolic acid-28-O-triglycoside (OA-28 x3Gly) and oleanolic acid-28-O-tetraglycoside (OA-28 x4Gly), were compared directly to the activation achieved by oleanolic acid.
Biochemical assays measuring lipase activity were initially used in high-throughput microtitre plate format to enable different saponins at different doses to be screened as potential inhibitors of Lipex 100 L lipase (Novozymes). Effective inhibitors are sought to prevent the lipase hydrolytic activity towards the soil release polymer which is typically observed. […] When using 10 ng/mL lipase ([…]) in this case (this level chosen to ensure that substrate hydrolysis and resultant increase in absorbance measurements falls within the sensitivity of the spectrophotometer) the typical saponin concentration required to inhibit the lipase was around 50-125 μM.

[3] = system: Novozym 51032; assay: Biochemical determination of lipase activity with Novozym 51032; conditions: lipase 10 μg/L; for % increase in Lipase activity in the presence of escin saponin compared to absence of saponin: Novozym 51032
Description: as §1, §2

[4] = system: Lipex Evity; assay: Biochemical determination of lipase activity with Lipex Evity; conditions: lipase 10 μg/L
Description: as §1, §2

[5] = system: Resinase HT; assay: Biochemical determination of lipase activity with Resinase HT; conditions: lipase 10 μg/L
Description: as §1, §2

Compound: CCCCCCCCCCC[C@@H](C[C@@H]1OC(=O)[C@H]1CCCCCC)OC(=O)[C@H](CC(C)C)NC=O [Orlistat, reference compound]
- Lipex 100L lipase activity (inhibitory effect of various saponin derivatives) [1]: −0.00032 (±0.0003) abs/min @405 nm

Compound: Avenacin
- lipase inhibition [1]: complete inhibition
- Lipex 100L lipase activity (inhibitory effect of various saponin derivatives) [1]: 0.0013 (±0.0006) abs/min @405 nm

Compound: CC1(C)[C@@H](O[C@H]2O[C@H](C(=O)O)[C@@H](O)[C@H](O)[C@H]2O[C@@H]2O[C@H](C(=O)O)[C@@H](O)[C@H](O)[C@H]2O)CC[C@]2(C)[C@H]3C(=O)C=C4[C@@H]5C[C@@](C)(C(=O)O)CC[C@]5(C)CC[C@@]4(C)[C@]3(C)CC[C@@H]12 [Glycyrrhizic acid]
- Lipex 100L activity in the presence of saponins ([2]; saponin dose 0.01 μM): 0.244 Δabs/min @405 nm
- Lipex 100L activity in the presence of saponins ([2]; saponin dose 0.1 μM): 0.252 Δabs/min @405 nm
- Lipex 100L activity in the presence of saponins ([2]; saponin dose 0.5 μM): 0.238 Δabs/min @405 nm
- Lipex 100L activity in the presence of saponins ([2]; saponin dose 10 μM): 0.221 Δabs/min @405 nm
- Lipex 100L activity in the presence of saponins ([2]; saponin dose 25 μM): 0.171 Δabs/min @405 nm
- Lipex 100L activity in the presence of saponins ([2]; saponin dose 50 μM): 0.135 Δabs/min @405 nm
- Lipex 100L activity in the presence of saponins ([2]; saponin dose 125 μM): 0.116 Δabs/min @405 nm
- Lipex 100L activity in the presence of saponins ([2]; saponin dose 250 μM): 0.083 Δabs/min @405 nm
- Lipex 100L activity in the presence of saponins ([2]; saponin dose 500 μM): 0.068 Δabs/min @405 nm

Compound: CC1(C)CC[C@]2(C(=O)O)CC[C@]3(C)C(=CC[C@@H]4[C@@]5(C)CC[C@H](O)C(C)(C)[C@@H]5CC[C@]43C)[C@@H]2C1 [Oleanolic acid, reference compound]
- activation of Lipex 100 L [2]: small activation
- Lipex 100L lipase activity (inhibitory effect of various saponin derivatives) [1]: 0.0842 (±0.0084) abs/min @405 nm

Compound: Escin
- ability to decrease lipase activity (in words) ([2]; Lipex 100 L, Table 2 screen): decrease lipase activity to negligible levels
- threshold escin concentration above which lipase activity increased ([2]; Lipex 100 L, lipase 10 μg/L): ~0.10 µM
- % increase in Lipase activity in the presence of escin saponin compared to absence of saponin ([2]; saponin dose 0.01 μM, lipase 10 μg/L): −25%
- % increase in Lipase activity in the presence of escin saponin compared to absence of saponin ([2]; saponin dose 0.1 μM, lipase 10 μg/L): 25%
- % increase in Lipase activity in the presence of escin saponin compared to absence of saponin ([2]; saponin dose 0.5 μM, lipase 10 μg/L): 100%
- % increase in Lipase activity in the presence of escin saponin compared to absence of saponin ([2]; saponin dose 1 μM, lipase 10 μg/L): 450%
- % increase in Lipase activity in the presence of escin saponin compared to absence of saponin ([2]; saponin dose 2.5 μM, lipase 10 μg/L): 1650%
- % increase in Lipase activity in the presence of escin saponin compared to absence of saponin ([2]; saponin dose 5 μM, lipase 10 μg/L): 1775%
- Lipex 100L activity in the presence of saponins ([2]; saponin dose 0.01 μM): 0.257 Δabs/min @405 nm
- Lipex 100L activity in the presence of saponins ([2]; saponin dose 0.1 μM): 0.241 Δabs/min @405 nm
- Lipex 100L activity in the presence of saponins ([2]; saponin dose 0.5 μM): 0.247 Δabs/min @405 nm
- Lipex 100L activity in the presence of saponins ([2]; saponin dose 10 μM): 0.200 Δabs/min @405 nm
- Lipex 100L activity in the presence of saponins ([2]; saponin dose 25 μM): 0.204 Δabs/min @405 nm
- Lipex 100L activity in the presence of saponins ([2]; saponin dose 50 μM): 0.152 Δabs/min @405 nm
- Lipex 100L activity in the presence of saponins ([2]; saponin dose 125 μM): 0.006 Δabs/min @405 nm
- Lipex 100L activity in the presence of saponins ([2]; saponin dose 250 μM): 0.001 Δabs/min @405 nm
- Lipex 100L activity in the presence of saponins ([2]; saponin dose 500 μM): 0.001 Δabs/min @405 nm
- Lipex 100L lipase activity (inhibitory effect of various saponin derivatives) [1]: 0.0039 (±0.0027) abs/min @405 nm
- % increase in Lipase activity in the presence of escin saponin compared to absence of saponin ([3]; saponin dose 0.01 μM): 0%
- % increase in Lipase activity in the presence of escin saponin compared to absence of saponin ([3]; saponin dose 0.1 μM): 50%
- % increase in Lipase activity in the presence of escin saponin compared to absence of saponin ([3]; saponin dose 0.5 μM): 50%
- % increase in Lipase activity in the presence of escin saponin compared to absence of saponin ([3]; saponin dose 1 μM): 50%
- % increase in Lipase activity in the presence of escin saponin compared to absence of saponin ([3]; saponin dose 2.5 μM): 150%
- % increase in Lipase activity in the presence of escin saponin compared to absence of saponin ([3]; saponin dose 5 μM): 250%
- threshold escin concentration above which lipase activity increased ([3]; Novozyme 51032): ~0.10 µM
- threshold escin concentration above which lipase activity increased [4]: ~0.10 µM
- % increase in Lipase activity in the presence of escin saponin compared to absence of saponin ([4]; saponin dose 0.01 μM): 0%
- % increase in Lipase activity in the presence of escin saponin compared to absence of saponin ([4]; saponin dose 0.1 μM): 20%
- % increase in Lipase activity in the presence of escin saponin compared to absence of saponin ([4]; saponin dose 0.5 μM): 120%
- % increase in Lipase activity in the presence of escin saponin compared to absence of saponin ([4]; saponin dose 1 μM): 200%
- % increase in Lipase activity in the presence of escin saponin compared to absence of saponin ([4]; saponin dose 2.5 μM): 240%
- % increase in Lipase activity in the presence of escin saponin compared to absence of saponin ([4]; saponin dose 5 μM): 260%
- threshold escin concentration above which lipase activity increased [5]: ~0.01 µM
- % increase in Lipase activity in the presence of escin saponin compared to absence of saponin ([5]; saponin dose 0.01 μM): 70%
- % increase in Lipase activity in the presence of escin saponin compared to absence of saponin ([5]; saponin dose 0.1 μM): 60%
- % increase in Lipase activity in the presence of escin saponin compared to absence of saponin ([5]; saponin dose 0.5 μM): 170%
- % increase in Lipase activity in the presence of escin saponin compared to absence of saponin ([5]; saponin dose 1 μM): 210%
- % increase in Lipase activity in the presence of escin saponin compared to absence of saponin ([5]; saponin dose 2.5 μM): 140%
- % increase in Lipase activity in the presence of escin saponin compared to absence of saponin ([5]; saponin dose 5 μM): 200%

Compound: oleanolic acid-28-O-triglycoside [OA-28 x3Gly]
- activation of Lipex 100 L [2]: greater than 20 fold
- lipase inhibition [1]: complete inhibition
- Lipex 100L lipase activity (inhibitory effect of various saponin derivatives) [1]: −0.0011 (±0.0005) abs/min @405 nm

Compound: oleanolic acid-28-O-tetraglycoside [OA-28 x4Gly]
- lipase inhibition [1]: 80%
- Lipex 100L lipase activity (inhibitory effect of various saponin derivatives) [1]: 0.0109 (±0.0006) abs/min @405 nm
